# Measurements taken from patent US20180271863A1, “TARGETING P2 PURINERGIC RECEPTORS TO TREAT HEPATOCELLULAR CARCINOMA (HCC)” (Baylor College of Medicine, priority 2015, published 2018).
# Assays:
# Assay type in all cases: cell-based, human
# Huh7 cells [1] = test: qRT-PCR of cyclin mRNA in Huh7 cells
# Experimental: (§1) Normal human primary hepatocytes isolated from healthy adults (no known history of HCC) in suspension or freshly-frozen prior to shipment (Cryoport Systems, CA) were purchased from Triangle Research Labs, NC. Fresh hepatocytes were plated on collagen-coated tissue culture plates or glass coverslips in Williams E complete media with additives (10% fetal bovine serum, 2 mM glutamine, […] insulin, 4 ng/ml glucagon, […] transferrin, 2.5 ng/ml sodium selenite, 10,000 U/ml penicillin, […] streptomycin, 50 g/ml gentamycin) for 3 h to ensure hepatocyte adherence to plates. Subsequently, hepatocytes were maintained in Williams E minimal media free from serum and growth factors for 24 h prior to treatment. Human hepatocellular carcinoma derived Huh7, and Hep3B, were cultured in Minimum Essential Medium Eagle (MEM); SNU-387 was cultured in Roswell Park Memorial Institute (RPMI) medium and PLC/PRF/5 cultured in Dulbecco's Modified Eagle's medium (DMEM). All maintenance culture media were supplemented with 10% fetal bovine serum (FBS), L-Glutamine (2 mM), penicillin (100 units/ml) and streptomycin ([…]) at 37° C. and 5% CO2. Cells were maintained in serum free media (containing 2 mM L-Glutamine, 100 units/ml penicillin and ([…])) streptomycin for 24 h prior to treatment. Total RNA was isolated from human livers or cells using Trizol Reagent according to manufacturer's instructions (Invitrogen, NY). Complementary DNA (cDNA) synthesis was performed by reverse transcription of total RNA (2 μg) with high capacity cDNA reverse transcription kit (Applied Biosystems, Foster city, CA). The cDNA product was amplified by qRT-PCR in Step One Plus Real-Time PCR system using SYBR Green PCR Master Mix (Applied Biosystems, Grand Island, N.Y.). Quantitative expression values were determined using the ΔΔACt method as specified by manufacturers using GAPDH as a control.
# Huh7 cells [2] = test: qRT-PCR of YAP target genes in Huh7 cells
# Source text: Total RNA was isolated from human livers or cells and was amplified by qRT-PCR as described recently (Oncotarget 2015; 6:41162-41179). Next, Applicants tested whether extracellular nucleotide treatment may have an effect on YAP target genes important in hepatocellular carcinoma. […] Moreover, P2X3 antagonist (AF-353) pretreatment attenuated ATP mediated induction of survivin (FIG. 20G).
# Huh7 cells [3] = test: Western blotting for hippo pathway phosphorylation (Mst1/2, LATS, Yap) in Huh7 cells
# Experimental: Total protein extracts were obtained by homogenizing cells in total lysis buffer and analyzed by Western blotting as described recently (Oncotarget 2015; 6:41162-41179). […] Therefore, Applicants performed in vitro studies to test whether activation of P2 purinergic receptors may affect the hippo pathway and its downstream effectors. Huh7 cells—human derived hepatocellular carcinoma cells—maintained in serum free media for 24 hours—were treated with P2 purinergic receptor agonists. […] ADP treatment alone was also sufficient to induce LATs phosphorylation (2 h-1.7 fold, 4 h-1.5 fold) (FIG. 20B). […] Hippo kinases Mst1/2 and Lats1/2 work through a phosphorylation cascade to phosphorylate Yap, thereby retaining Yap in the cytoplasm. In spite of nucleotide-mediated Mst1/2 and Lats phosphorylation, ATP, ADP and ATPγS treatment was individually insufficient to induce Yap phosphorylation. […] Similarly, ATP treatment alone increased nuclear YAP protein expression (1.7 fold) (FIG. 20D).
# Huh7 cells [4] = test: Western blotting of cyclin and CDK proteins in Huh7 cells
# Experimental: as §1, with “treatment.” for “treatment. Total RNA was isolated from human livers or cells using Trizol Reagent according to manufacturer's instructions (Invitrogen, NY). Complementary DNA (cDNA) synthesis was performed by reverse transcription of total RNA (2 μg) with high capacity cDNA reverse transcription kit (Applied Biosystems, Foster city, CA). The cDNA product was amplified by qRT-PCR in Step One Plus Real-Time PCR system using SYBR Green PCR Master Mix (Applied Biosystems, Grand Island, N.Y.). Quantitative expression values were determined using the ΔΔACt method as specified by manufacturers using GAPDH as a control.”
# Total protein extracts were obtained by homogenizing cells in total lysis buffer (50 mM Tris-HCl, pH 7.5, 0.5 M NaCl, 2 mM EGTA, 2 mM EDTA, 1.0% Triton X-100, 0.25% Deoxycholate, 1 m/ml pepstatin, 1.0 m/ml leupeptin, 1.0 m/ml aprotinin, 1.0 mM phenylmethylsulfonyl fluoride, 1.0 mM Dithiothreitol, 2.0 mM activated Na3VO4, and 2.0 mM NaF) and centrifuging at 14,000 rpm for 10 min (4° C.). Equal amounts of total proteins as determined by BCA protein Assay (Pierce, Rockford, Ill.) were analyzed by Western blotting. Blots were probed with antibody specific for a-tubulin or GAPDH to ensure equal loading of proteins in each lane.
# Huh7 cells [5] = test: BrdU incorporation (proliferation) in Huh7 cells; conditions: nucleotide 100 μM
# Experimental: To determine whether P2 purinergic receptor activation influences HCC cell proliferation, BrdU incorporation was assessed in HCC cells maintained in SFM for 24 hours and treated with ATP for 24 hours. ATP treatment alone was sufficient to induce proliferation in each of these cell lines (Huh7, 34%; Hep3B, 46%; SNU-387, 47% and PLC/PRF/5, 24%), identifying nucleotides as liver cancer cell mitogens (FIG. 7A).
# Extracellular ATP can be hydrolyzed to ADP and adenosine by ectonucleotidases at the plasma membrane. Therefore, Applicants tested the effects of ATPγS (non-hydrolyzable analog of ATP) or ADP (break down product of ATP) (100 μM) on Huh7 cell proliferation. ATPγS treatment alone was sufficient to induce BrdU incorporation as early as 12 hours (42%); maintained at 18 h (30%) and 24 h (29%) in Huh7 cells (FIG. 8). ADP was also able to independently increase the number of BrdU positive nuclei (12 h, 30%; 18 h, 35%; 24 h, 37%) (FIG. 8). Furthermore, ATP treatment (18 h) increased cell proliferation and viability in all four cell lines, as determined by MTT assay (Huh7, 65%; Hep3B, 81%; SNU-387, 90% and PLC/PRF/5, 43%) (FIG. 7B).
# as §1, with “treatment.” for “treatment. Total RNA was isolated from human livers or cells using Trizol Reagent according to manufacturer's instructions (Invitrogen, NY). Complementary DNA (cDNA) synthesis was performed by reverse transcription of total RNA (2 μg) with high capacity cDNA reverse transcription kit (Applied Biosystems, Foster city, CA). The cDNA product was amplified by qRT-PCR in Step One Plus Real-Time PCR system using SYBR Green PCR Master Mix (Applied Biosystems, Grand Island, N.Y.). Quantitative expression values were determined using the ΔΔACt method as specified by manufacturers using GAPDH as a control.”
# Formalin-fixed and paraffin embedded liver sections from HCC patients were analyzed by immunohistochemistry with anti-P2X3 antibody (Abcam, Cambridge, Mass.). HCC cells were grown on glass coverslips; BrdU (10 μM, Roche, Indianapolis, Ind.) was added to culture media for 1 h prior to fixation (cold acetone:methanol, 1:1) and stained using anti-BrdU antibody (DAKO, Carpinteria, Calif.) and DAB Peroxidase Substrate Kit (Vector Labs, Burlingame, Calif.), according to manufacturer's instructions. Counterstaining was done with hematoxylin. BrdU positive cells were counted and expressed as a percentage of the total number of cells in ten randomly selected high-power fields (20×) per coverslips.
compound,measurement,setting,value
Cc1ccc(C(=O)Nc2ccc(S(=O)(=O)O)c3cc(S(=O)(=O)O)cc(S(=O)(=O)O)c23)cc1NC(=O)c1cccc(NC(=O)Nc2cccc(C(=O)Nc3cc(C(=O)Nc4ccc(S(=O)(=O)O)c5cc(S(=O)(=O)O)cc(S(=O)(=O)O)c45)ccc3C)c2)c1 [Suramin],effect on nucleotide induction of cyclin D3 mRNA,Huh7 cells [1]; Suramin pre-treatment (30 minutes) before 24 hours nucleotide treatment,dose dependent attenuation
same,effect on baseline cyclin D3 expression,Huh7 cells [1]; Suramin treatment alone,reduced
Cc1nc(N=Nc2ccc(S(=O)(=O)O)cc2S(=O)(=O)O)c(COP(=O)(O)O)c(C=O)c1O [PPADS],effect on ATPγS-induced AREG and CTGF expression,"Huh7 cells [2]; ATPγS ± PPADS, 24 h",completely attenuated
O=c1ccn([C@@H]2O[C@H](COP(=O)(O)OP(=O)(O)OP(=O)(O)O)[C@@H](O)[C@H]2O)c(=O)[nH]1 [UTP],Mst1/2 phosphorylation,"Huh7 cells [3]; Huh7, serum free 24 hours, as early as 5 minutes, sustained at 4 hours",significantly induced
O=C(O)c1cc(C(=O)O)c(C(=O)N(Cc2cccc(Oc3ccccc3)c2)[C@H]2CCCc3ccccc32)cc1C(=O)O [A317491],effect on ATP induced cyclin D3 expression,"Huh7 cells [4]; A317491 30 μM pre-treatment, ATP 24 h",attenuated
Nc1ncnc2c1ncn2[C@@H]1O[C@H](COP(=O)(O)OP(=O)(O)O)[C@@H](O)[C@H]1O [ADP],BrdU incorporation / BrdU positive nuclei,Huh7 cells [5]; 12 h,30%
same,BrdU incorporation / BrdU positive nuclei,Huh7 cells [5]; 18 h,35%
same,BrdU incorporation / BrdU positive nuclei,Huh7 cells [5]; 24 h,37%
same,Cyclin D3 mRNA expression vs untreated cells,Huh7 cells [1]; 12 h treatment,2.7 fold
same,Cyclin D3 mRNA expression vs untreated cells,Huh7 cells [1]; 36 h treatment,2.8 fold
same,Yap phosphorylation,"Huh7 cells [3]; Huh7, 12 h treatment",0.2 fold
same,induction of Yap phosphorylation,"Huh7 cells [3]; Huh7, 12 h treatment",insufficient
same,AREG gene expression,Huh7 cells [2]; 24 h treatment,2.6 fold
same,CTGF gene expression,Huh7 cells [2]; 24 h treatment,2.5 fold
same,Sox9 gene expression,Huh7 cells [2]; 24 h treatment,1.4 fold
same,cyclin E gene expression,Huh7 cells [2]; 24 h treatment,2.4 fold
same,survivin gene expression,Huh7 cells [2]; 24 h treatment,1.4 fold
CSc1nc(N)c2ncn([C@@H]3O[C@H](COP(=O)(O)OP(=O)(O)OP(=O)(O)O)[C@@H](O)[C@H]3O)c2n1 [2-MeSATP],cyclin D3 expression,"Huh7 cells [4]; 2MeSATP 50 μM alone, 24 h",1.9 fold
